This experiment addresses T1, Human FXRα Ligand Binding Domain (FXRα LBD) (Homo sapiens, UniProt Q96RI1).
T1 construct: polyhistidine (N); made in house; host or cells: E. coli BL21 (DE3), pRSET-A vector
T1 sequence (Q96RI1 222-472 isoform Q96RI1-2): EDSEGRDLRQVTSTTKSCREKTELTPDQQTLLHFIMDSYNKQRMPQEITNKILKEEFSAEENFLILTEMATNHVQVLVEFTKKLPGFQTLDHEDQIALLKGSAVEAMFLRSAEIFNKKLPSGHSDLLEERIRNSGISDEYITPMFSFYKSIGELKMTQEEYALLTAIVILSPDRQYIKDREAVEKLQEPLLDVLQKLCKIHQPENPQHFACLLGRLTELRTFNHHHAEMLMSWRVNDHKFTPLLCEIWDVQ
The experiment is described as follows: FXR Affinity Binding Assay: ligand mediated cofactor peptide (SRC-1 LCD2, 676-700) interaction, time resolved fluorescence. As to conditions: FXRα LBD-APC / europium labeled SRC-1 peptide, TRF signal, at least 2 hours at room temperature; read-out: Activity (pEC50) (converted). Here is the method:
Determination of a ligand mediated cofactor peptide interaction to quantify ligand binding to the nuclear receptor Farnasoid X Receptor (FXR). The method measures the ability of putative ligands to modulate the interaction between the purified bacterial expressed FXRα (LBD) and a synthetic biotinylated peptide based on residues 676-700 of SRC-1(LCD2, 676-700). […] Detection of the associated complex is measured by time resolved fluorescence (TRF). The purified LBD of FXR is labeled with biotin then mixed with stoichiometric amounts of APC labeled streptavidin (Molecular Probes). The biotinylated peptide is then mixed with a ½ stoichiometric amount of europium labeled streptavidin (Wallac Inc). Each is then blocked with a 5 fold excess of biotin and allowed to equilibrate for 15 min. Equimolar amounts of receptor and peptide are mixed together and allowed to equilibrate for at least 30 min prior to the addition to either a variable or constant concentrations of the sample for which the affinity is to be determined. After equilibration, the time-resolved fluorescent signal is quantitated using a fluorescent plate reader. The affinity of the test compound is estimated from a plot of fluorescence versus concentration of test compound added.
Ligands that promote the complex formation induce a concentration-dependent increase in time-resolved fluorescent signal.
Human FXRα Ligand Binding Domain (FXRα LBD) was expressed in E.coli strain BL21 (DE3) as an amino-terminal polyhistidine tagged fusion protein. Expression was under the control of an IPTG inducible T7 promoter. DNA encoding this recombinant protein was subcloned into the pRSET-A expression vector (Invitrogen). The coding sequence of Human FXRα LBD was derived from Genbank accession number U 68233 (amino acids 222 to 472).
Routinely, 30-40 g cell paste (equivalent to 2-3 liters of the fermentation batch) was resuspended in 200-250 mL TBS, pH 7.2 (25mM Tris, 150 mM NaCl). Cells were lysed by passing 3 times through a French Press and cell debris was removed by centrifugation (30 minutes, 20,000 g, 4° C.). The cleared supernatant was filtered through course pre-filters, and TBS, pH 7.2, containing 500 mM imidazole was added to obtain a final imidazole concentration of 50 mM. This lysate was loaded onto a column (6×8 cm) packed with Sepharose [Ni^++ charged]Chelation resin (Pharmacia) and pre-equilibrated with TBS pH 7.21 50 mM imidazole. After washing to baseline absorbance with equilibration buffer, the column was washed with one column volume of TBS pH 7.2 containing 90 mM imidazole. FXRαLBD was eluted directly with 365 mM imidazole. Column fractions were pooled and dialyzed against TBS, pH 7.2, containing 0.5 mM EDTA and 5 mM DTT. The dialyzed protein sample was concentrated using Centri-prep 10 K (Amicon) and subjected to size exclusion, using a column (3×90 cm) packed with Sepharose S-75 resin (Pharmacia) pre-equilibrated with TBS, pH 7.2, containing 0.5 mM EDTA and 5 mM DTT.
Purified FXRα LBD was desalted/buffer exchanged using PD-10 gel filtration columns into PBS [100 mM NaPhosphate, pH 7.2, 150 mM NaCl]. FXRα LBD was diluted to approximately 10 μM in PBS and five-fold molar excess of NHS-LC-Biotin (Pierce) was added in a minimal volume of PBS. This solution was incubated with gentle mixing for 30 minutes at room temperature. The biotinylation modification reaction was stopped by the addition of 2000× molar excess of Tris-HCl, pH 8. The modified FXRα LBD was dialyzed against 4 buffer changes, each of at least 50 volumes, PBS containing 5 mM DTT, 2 mM EDTA and 2% sucrose.
As to `Cc1cc(OCc2c(-c3c(Cl)cccc3Cl)noc2C(C)C)ccc1N(C)S(=O)(=O)c1cccc(C(=O)O)c1` [Example 48, 3-{[(4-{[3-(2,6-Dichlorophenyl)-5-isopropylisoxazol-4-yl]methoxy}-2-methylphenyl)-(methyl)amino]sulfonyl}benzoic acid], the EC50 is < 0.1 µM.

Consider `Cc1cc(OCc2c(-c3c(Cl)cccc3Cl)noc2C(C)C)ccc1N(C)Cc1occc1C(=O)O` [Example 10, 2-[(4-{[3-(2,6-Dichlorophenyl)-5-isopropyl-4-isoxazolyl]methoxy}-2-dimethylanilino)methyl]-3-furoic acid], for which the EC50 is 0.102 to 1 µM. With `CC(C)c1onc(-c2c(Cl)cccc2Cl)c1COc1ccc(CN(C)c2cccc(C(=O)O)c2)c(Cl)c1` [Example 93, 3-[(2-Chloro-4-{[3-(2,6-dichlorophenyl)-5-isopropylisoxazol-4-yl]methoxy}benzyl)(methyl)amino]benzoic acid] the figure was 0.102 to 1 µM; with `CC(C)c1onc(-c2ccccc2OC(F)(F)F)c1COc1ccc(CNc2cccc(C(=O)O)c2)c(Cl)c1` [Example 96, 3-{[2-Chloro-4-({5-isopropyl-3-[2-(trifluoromethoxy)phenyl]-4-isoxazolyl}methoxy)benzyl]amino}benzoic acid], 0.102 to 1 µM; with `COC(=O)c1cccc(OCc2ccc(OCc3c(-c4ccccc4OC(F)(F)F)noc3C(C)C)cc2C)c1` [Example 84, Methyl 3-{[4-({5-isopropyl-3-[2-(trifluoromethoxy)phenyl]isoxazol-4-yl}methoxy)-2-methylbenzyl]oxy}benzoate], 1.02 to 10 µM. Regarding `CCc1onc(Cc2c(Cl)cccc2Cl)c1COc1ccc(COc2cccc(C(=O)O)c2)c(Cl)c1` [Example 87, 3-[(2-Chloro-4-{[3-(2,6-dichlorobenzyl)-5-ethylisoxazol-4-yl]methoxy}benzyl)oxy]benzoic acid], the EC50 is 0.102 to 1 µM. With `CCN(c1ccc(OCc2c(-c3c(Cl)cccc3Cl)noc2C(C)C)cc1)S(=O)(=O)c1ccc(C(=O)O)cc1` [Example 67, 4-{[(4-{[3-(2,6-Dichlorophenyl)-5-isopropylisoxazol-4-yl]methoxy}phenyl)(ethyl)amino]-sulfonyl}benzoic acid], the EC50 was 0.102 to 1 µM. Next, `CC(C)c1onc(-c2c(Cl)cccc2Cl)c1COc1ccc(NC(=O)c2ccc(C(=O)O)cc2)c(Cl)c1` [Example 23, 4-{[(2-Chloro-4-{[3-(2,6-dichlorophenyl)-5-isopropylisoxazol-4-yl]methoxy}phenyl)amino]carbonyl}benzoic acid]: 0.102 to 1 µM; `COC(=O)c1cccc(COc2ccc(OCc3c(-c4c(Cl)cccc4Cl)noc3C(C)C)cc2Cl)c1` [Example 99, Methyl 3-[(2-chloro-4-{[3-(2,6-dichlorophenyl)-5-isopropylisoxazol-4-yl]methoxy}-phenoxy)methyl]benzoate]: 1.02 to 10 µM; `Cc1cc(OCc2c(-c3ccccc3OC(F)(F)F)noc2C(C)C)ccc1N(C)S(=O)(=O)c1cccc(C(=O)O)c1` [Example 73, 3-{[[4-({5-Isopropyl-3-[2-(trifluoromethoxy)phenyl]isoxazol-4-yl}methoxy)-2-methyl-phenyl](methyl)amino]sulfonyl}benzoic acid]: 0.102 to 1 µM. Next, `CCN(c1ccc(OCc2c(-c3c(Cl)cccc3Cl)noc2C(C)C)cc1C)S(=O)(=O)c1ccc(C(=O)O)cc1` [Example 66, 4-{[(4-{[3-(2,6-Dichlorophenyl)-5-isopropylisoxazol-4-yl]methoxy}-2-methylphenyl)-(ethyl)amino]sulfonyl}benzoic acid]: 0.102 to 1 µM; `COC(=O)c1ccc(CN(C)c2ccc(OCc3c(-c4ccccc4OC(F)(F)F)noc3C(C)C)cc2C)o1` [Example 21, Methyl 5-{[4-({5-isopropyl-3-[2-(trifluoromethoxy)phenyl]-4-isoxazolyl}methoxy)-2-dimethylanilino]methyl}-2-furoate]: < 0.1 µM; `Cc1cc(OCc2c(-c3c(Cl)cccc3Cl)noc2C(C)C)ccc1NS(=O)(=O)c1cccc(C(=O)O)c1` [Example 39, 3-{[(4-{[3-(2,6-Dichlorophenyl)-5-isopropylisoxazol-4-yl]methoxy}-2-methylphenyl)-amino]sulfonyl}benzoic acid]: 0.102 to 1 µM.

Turning to `COC(=O)c1cccc(S(=O)(=O)N(C)c2ccc(OCc3c(-c4c(Cl)cccc4Cl)noc3C(C)C)cc2Cl)c1` [Example 41, Methyl 3-{[(2-chloro-4-{[3-(2,6-dichlorophenyl)-5-isopropylisoxazol-4-yl]methoxy}-phenyl)(methyl)amino]sulfonyl}benzoate], the EC50 was 0.102 to 1 µM. With `CC(C)c1onc(-c2c(Cl)cccc2Cl)c1COc1ccc(N(C)C(=O)c2cccc(C(=O)O)c2)c(Cl)c1` [Example 30, 3-[(2-Chloro-4-{[3-(2,6-dichlorophenyl)-5-isopropyl-4-isoxazolyl]methoxy}methylanilino)carbonyl]benzoic acid] the figure was 0.102 to 1 µM; with `Cc1cc(OCc2c(-c3ccccc3OC(F)(F)F)noc2C(C)C)ccc1NC(=O)c1cccc(C(=O)O)c1` [Example 33, 3-{[4-({5-Isopropyl-3-[2-(trifluoromethoxy)phenyl]-4-isoxazolyl}methoxy)-2-methylanilino]carbonyl}benzoic acid], 0.102 to 1 µM; with `Cc1cc(OCc2c(-c3c(Cl)cccc3Cl)noc2C(C)C)ccc1OCc1cccc(C(=O)O)c1` [Example 102, 3-[(4-{[3-(2,6-Dichlorophenyl)-5-isopropylisoxazol-4-yl]methoxy}-2-methylphenoxy)-methyl]benzoic acid], 0.102 to 1 µM. Next, `Cc1cc(OCc2c(-c3c(Cl)cccc3Cl)noc2C(C)C)ccc1N(C)Cc1ccc(C#N)cc1` [Example 9, 4-[(4-{[3-(2,6-Dichlorophenyl)-5-isopropyl-4-isoxazolyl]methoxy}-2-dimethylanilino)methyl]benzonitrile]: 0.102 to 1 µM. Next, `CCN(c1ccc(OCc2c(-c3c(Cl)cccc3Cl)noc2C(C)C)cc1)S(=O)(=O)c1cccc(C(=O)OC)c1` [Example 45, Methyl 3-{[(4-{[3-(2,6-dichlorophenyl)-5-isopropylisoxazol-4-yl]methoxy}phenyl)(ethyl)-amino]sulfonyl}benzoate]: 1.02 to 10 µM; `CC(C)c1onc(-c2c(Cl)cccc2Cl)c1COc1ccc(OCc2cccc(C(=O)O)c2)c(Cl)c1` [Example 101, 3-[(2-Chloro-4-{[3-(2,6-dichlorophenyl)-5-isopropylisoxazol-4-yl]methoxy}phenoxy)-methyl]benzoic acid]: 0.102 to 1 µM.

`COC(=O)c1ccc(S(=O)(=O)N(C)c2ccc(OCc3c(-c4c(Cl)cccc4Cl)noc3C(C)C)cc2C)cc1` [Example 59, Methyl 4-{[(4-{[3-(2,6-dichlorophenyl)-5-isopropylisoxazol-4-yl]methoxy}-2-methyl-phenyl)(methyl)amino]sulfonyl}benzoate]: the EC50 was 0.102 to 1 µM. With `CC(C)c1onc(-c2ccccc2OC(F)(F)F)c1COc1ccc(CSc2cccc(C(=O)O)c2)c(Cl)c1` [Example 90, 3-{[2-Chloro-4-({5-isopropyl-3-[2-(trifluoromethoxy)phenyl]isoxazol-4-yl}methoxy)-benzyl]thio}benzoic acid] the figure was 0.102 to 1 µM.

Values taken from patent publication US7319109B2, “Farnesoid X receptor agonists” (Smith Kline Beecham Corporation, priority 2002, dated 2008).
